We go through three molecules from patent US20040043425A1, “Proteins, genes and their use for diagnosis and treatment of chronic asthma” (priority 2000, published 2004).

For one test, the system named is CAF-22. In words: 2D electrophoresis fold change of CAF-22 in primary cultures of human airway myofibroblasts. In kind it is cell-based. The conditions noted are these: thrombin 20 units/ml, early. As for the experimental part: (§1) dexamethasone at 1 μM (glucocorticoid).
The test system of a further test is CAF-25. In words: 2D electrophoresis fold change of CAF-25 in primary cultures of human airway myofibroblasts. In kind it is cell-based. The conditions noted are these: thrombin 20 units/ml. As for the experimental part: as §1
The subject of another test is CAF-13. The experiment in a line: 2D electrophoresis fold change of CAF-13 in primary cultures of human airway myofibroblasts. It is filed as cell-based. The settings on record: thrombin 20 units/ml. As for the experimental part: as §1
For a further test, the system named is CAF-24. The experiment in a line: 2D electrophoresis fold change of CAF-24 in primary cultures of human airway myofibroblasts. It is filed as cell-based. The conditions noted are these: thrombin 20 units/ml, early. As for the experimental part: as §1
For another test, the system named is CAF-15. The experiment in a line: 2D electrophoresis fold change of CAF-15 in primary cultures of human airway myofibroblasts. In kind it is cell-based. The conditions noted are these: thrombin 20 units/ml. As for the experimental part: as §1
Another test deals with CAF-3. In words: 2D electrophoresis fold change of CAF-3 in primary cultures of human airway myofibroblasts. The settings on record: thrombin 20 units/ml. It is filed as cell-based. As for the experimental part:
as §1

In a further test the test system is CAF-20. In words: 2D electrophoresis fold change of CAF-20 in primary cultures of human airway myofibroblasts. It is filed as cell-based. The conditions noted are these: thrombin 20 units/ml, early. As for the experimental part: as §1
The next test relates to CAF-12. The experiment in a line: 2D electrophoresis fold change of CAF-12 in primary cultures of human airway myofibroblasts. In kind it is cell-based. The conditions noted are these: thrombin 20 units/ml, early. As for the experimental part: as §1
For the next test, the system named is CAF-29. In words: 2D electrophoresis fold change of CAF-29 in primary cultures of human airway myofibroblasts. It is filed as cell-based. The conditions noted are these: thrombin 20 units/ml. As for the experimental part: as §1
The test system of a further test is CAF-1. The conditions noted are these: thrombin 20 units/ml. As for the experimental part:
Using the following procedure, proteins in primary cultures of human airway myofibroblasts were separated by isoelectric focusing followed by SDS-PAGE and analyzed. Different cultures were used, infra, and two different time points at 1 hour (referred to as “early”) and 6 hours (referred to as “late”) were taken. Parts 6.1.1 to 6.1.14 (inclusive) of the procedure set forth below are hereby designated as the “Reference Protocol”.
Primary cultures of human airway myofibroblasts (Hall IP, Kotlikoff M, Am J Physiol January 1995; 268(1 Pt 1): L1-11, Use of cultured airway myocytes for study of airway smooth muscle; Hirst S J, Eur Respir J April 1996; 9(4): 808-20, Airway smooth muscle cell culture: application to studies of airway wall remodeling and phenotype plasticity in asthma.) were treated by one, or a successive combination of, the following:
thrombin at 20 units/ml (Panettieri R A Jr, Hall I P, Maki C S, Murray R K, Am J Respir Cell Mol Biol August 1995; 13(2):205-16, Alpha-Thrombin increases cytosolic calcium and induces human airway smooth muscle cell proliferation).
as §1
theophylline 100 μM (Billington C K, Joseph S K, Swan C, Scott M G, Jobson T M, Hall I P, Am J Physiol March 1999; 276(3 Pt 1):L412-9, Modulation of human airway smooth muscle proliferation by type 3 phosphodiesterase inhibition).
Using the protein expression database, matching protein features present in test primary cultures and in control primary cultures were compared.

Another test deals with CAF-18. The experiment in a line: 2D electrophoresis fold change of CAF-18 in primary cultures of human airway myofibroblasts. In kind it is cell-based. The settings on record: thrombin 20 units/ml. As for the experimental part:
as §1

The next test has as its system CAF-19. The experiment in a line: 2D electrophoresis fold change of CAF-19 in primary cultures of human airway myofibroblasts. It is filed as cell-based. The conditions noted are these: thrombin 20 units/ml, late. As for the experimental part: as §1
A further test deals with CAF-2. The experiment in a line: 2D electrophoresis fold change of CAF-2 in primary cultures of human airway myofibroblasts. In kind it is cell-based. The conditions noted are these: thrombin 20 units/ml. As for the experimental part:
as §1

The next test has as its system CAF-33. In words: 2D electrophoresis fold change of CAF-33 in primary cultures of human airway myofibroblasts. In kind it is cell-based. The conditions noted are these: thrombin 20 units/ml, late. As for the experimental part: as §1
A further test has as its system CAF-5. In words: 2D electrophoresis fold change of CAF-5 in primary cultures of human airway myofibroblasts. The conditions noted are these: thrombin 20 units/ml. In kind it is cell-based. As for the experimental part:
as §1

A further test concerns CAF-35. In words: 2D electrophoresis fold change of CAF-35 in primary cultures of human airway myofibroblasts. It is filed as cell-based. The conditions noted are these: thrombin 20 units/ml, late. As for the experimental part:
as §1

Another test deals with CAF-34. In words: 2D electrophoresis fold change of CAF-34 in primary cultures of human airway myofibroblasts. It is filed as cell-based. The settings on record: thrombin 20 units/ml. As for the experimental part: as §1
The subject of the next test is CAF-21. In words: 2D electrophoresis fold change of CAF-21 in primary cultures of human airway myofibroblasts. It is filed as cell-based. The conditions noted are these: thrombin 20 units/ml. As for the experimental part:
as §1

With `C[C@@H]1C[C@H]2[C@@H]3CCC4=CC(=O)C=C[C@]4(C)[C@@]3(F)[C@@H](O)C[C@]2(C)[C@@]1(O)C(=O)CO` [Dexamethasone, dexamethasone], the “Fold change following 1 h thrombin and 1 h Dexamethasone relative to cells treated with thrombin alone” value with CAF-22 (dexamethasone 1 μM) was −2.909; in the test on CAF-25 (dexamethasone 1 μM, early) it was 5.245; in the test with CAF-13 (dexamethasone 1 μM, early), 5.677; in the test on CAF-24 (dexamethasone 1 μM), 75.754; in the test on CAF-15 (dexamethasone 1 μM, early) it was 4.619; with CAF-3 (dexamethasone 1 μM, early), 2.438. Further, the “Fold change following 1 h thrombin and 1 h Dexamethasone relative to cells treated with thrombin alone” value worked out at 20.554 in the test on CAF-20 (dexamethasone 1 μM); 21.529 with CAF-12 (dexamethasone 1 μM); 4.713 in the test with CAF-1 (dexamethasone 1 μM, early); 8.553 in the test with CAF-18 (dexamethasone 1 μM, early). The “Fold change following 6 h thrombin and 7 h Dexamethasone relative to cells treated with thrombin alone” value is listed as −2.423 in the test with CAF-15 (dexamethasone 1 μM, late); −2.142 in the test on CAF-29 (dexamethasone 1 μM, late); −15.966 with CAF-18 (dexamethasone 1 μM, late).

Take `Cn1c(=O)c2[nH]cnc2n(C)c1=O` [theophylline]: the “Fold change following 1 h thrombin and 1 h theophylline relative to cells treated with thrombin alone” value in the test with CAF-22 (theophylline 100 μM) is on record as −2.096; with CAF-25 (theophylline 100 μM, early), 10.216; in the test with CAF-13 (theophylline 100 μM, early), 4.288; with CAF-2 (theophylline 100 μM, early), 4.912; in the test on CAF-24 (theophylline 100 μM) it was 19.892; in the test with CAF-15 (theophylline 100 μM, early), 16.824. Further, the “Fold change following 1 h thrombin and 1 h theophylline relative to cells treated with thrombin alone” value in the test on CAF-5 (theophylline 100 μM, early) is on record as 2.306; in the test on CAF-20 (theophylline 100 μM) it was 29.086; in the test with CAF-12 (theophylline 100 μM), 39.410; in the test with CAF-1 (theophylline 100 μM, early), 3.518; in the test with CAF-18 (theophylline 100 μM, early), 26.692. Also, the “Fold change following 6 h thrombin and 6 h theophylline relative to cells treated with thrombin alone” value with CAF-25 (theophylline 100 μM, late) stood at 19.320; in the test on CAF-19 (theophylline 100 μM), 2.800; in the test with CAF-33 (theophylline 100 μM), 2.031; in the test on CAF-35 (theophylline 100 μM), 2.182. The “Fold change following 6 h thrombin and 7 h theophylline relative to cells treated with thrombin alone” value in the test with CAF-15 (theophylline 100 μM, late) is −2.077; in the test on CAF-1 (theophylline 100 μM, late), −2.122; with CAF-18 (theophylline 100 μM, late) it was 2.839.

As to thrombin, the “Fold change following 1 h thrombin, relative to untreated cells” value in the test on CAF-22 was 1.733; in the test on CAF-25 (early), −8.122; in the test with CAF-13 (early), −2.425; with CAF-2 (early), 7.832; in the test on CAF-24 it was −332.863; in the test on CAF-15 (early) it was −14.045. Also, the “Fold change following 1 h thrombin, relative to untreated cells” value with CAF-3 (early) is on record as −2.976; in the test with CAF-5 (early), −3.486; with CAF-20 it was −16.512; in the test on CAF-12, −51.041; with CAF-29 (early), 2.597; with CAF-1 (early) it was −4.393. Moreover, the “Fold change following 1 h thrombin, relative to untreated cells” value in the test on CAF-34 (early) was 2.741; with CAF-21 (early), −4.110; in the test on CAF-18 (early), −19.780. The “Fold change following 6 h thrombin, relative to untreated cells” value with CAF-25 (late) is listed as −4.750; with CAF-13 (late), 3.292; in the test on CAF-19, −2.815; in the test on CAF-2 (late), 14.593; with CAF-15 (late), 3.037; in the test on CAF-3 (late), 2.120. In addition, the “Fold change following 6 h thrombin, relative to untreated cells” value in the test on CAF-33 is −4.459; in the test on CAF-5 (late), −2.846; with CAF-29 (late), 2.169; in the test on CAF-1 (late), 2.463; in the test with CAF-34 (late) it was 5.005; in the test on CAF-21 (late), 4.186. The “Fold change following 6 h thrombin, relative to untreated cells” value in the test with CAF-35 is −3.705; with CAF-18 (late) it was 16.517.
